Test results: US9879028B2, “Compounds that modulate EGFR activity and methods for treating or preventing conditions therewith” (Gatekeeper Pharmaceuticals, Inc., priority 2009, dated 2018)

Columns and labels:
[1] = system: EGFR Del 19/T790M Ba/F3 cells; test: MTS cell proliferation and growth assay in EGFR mutant Ba/F3 cells (Del 19/T790M); type: cell-based; conditions: Mus musculus, BaF3, 72 hours
From the text: (§1) The EGFR and iERBB2 mutant Ba/F3 cells and the NIH-3T3 cells have been previously characterized (Engelman, J. A. et al. Cancer Res 67, 11924-32 (2007); Yuza, Y. et al. Cancer Biol Ther 6 (2007)). The EGFR C797S and the ERBB2 T798I mutations are introduced using site directed mutagenesis using the Quick Change Site-Directed Mutagenesis kit (Stratagene; La Jolla, Calif.) according to the manufacturer's instructions (Mukohara, T. et al. J Natl Cancer Inst 97, 1185-94 (2005)). The oligonucleotide sequences are available upon request. All constructs are confirmed by DNA sequencing. The constructs are shuttled into the retroviral vector JP1540 using the BD Creator™ System (BD Biosciences). Ba/F3 of NIH-3T3 cells are infected with retrovirus according to standard protocols, as described previously (Engelman, J. A. et al. Proc Natl Acad Sci USA 102, 3788-93 (2005); Zhao, J. J. et al. Cancer Cell 3, 483-95 (2003)). Stable populations are obtained by selection in puromycin (2 μg/ml).
(§2) Growth and inhibition of growth is assessed by MTS assay. […]
(§3) Activity of various compounds of the invention was determined in vitro in EGFR mutant Ba/F3 cells according to the procedures set forth in Example 1.

[2] = system: EGFR L858R/T790M Ba/F3 cells; test: MTS cell proliferation and growth assay in EGFR mutant Ba/F3 cells (L858R/T790M); type: cell-based; conditions: Mus musculus, BaF3, 72 hours
From the text: as §1, §2, §3

lung cancer = lung cancer patients; cited from earlier work

Row | SMILES | IC50 [1] | IC50 [2] | median time to tumor progression (lung cancer)
1 | C=CC(=O)Nc1cccc(Oc2nc(Nc3ccc(N4CCN(C)CC4)cc3OC)nc3ccccc23)c1 [IV-1, N-(3-((2-((2-methoxy-4-(4-methylpiperazin-1-yl)phenyl)amino)quinazolin-4-yl)oxy)phenyl)acrylamide] | 435 nM | 688 nM | –
2 | C=CC(=O)Nc1cccc(-c2csc3cnc(Nc4ccc(N5CCN(C)CC5)cc4OC)nc23)c1 [VIII-1, N-(3-(2-((2-methoxy-4-(4-methylpiperazin-1-yl)phenyl)amino)thieno[3,2-d]pyrimidin-7-yl)phenyl)acrylamide] | 864 nM | 2160 nM | –
3 | C#Cc1cccc(Nc2ncnc3cc(OCCOC)c(OCCOC)cc23)c1 [erlotinib] | – | – | approximately 2 months
4 | COc1cc2ncnc(Nc3ccc(F)c(Cl)c3)c2cc1OCCCN1CCOCC1 [gefitinib] | – | – | approximately 2 months
